Experimental data taken from PubChem BioAssay (NCI).
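Method: 48-hour compound exposure of cells in 96-well plates, five concentrations, linear interpolation of endpoints. The concentration for full growth arrest is given as TGI.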

Columns and labels:
Assay in all cases: DTP human tumour cell line panel, 48 h
786-0 renal = test system: 786-0 renal
PC-3 prostate = test system: PC-3 prostate
HS 578T breast = test system: HS 578T breast
U251 CNS = test system: U251 CNS
CAKI-1 renal = test system: CAKI-1 renal
OVCAR-3 ovarian = test system: OVCAR-3 ovarian
HCC-2998 colon = test system: HCC-2998 colon
MDA-N = test system: MDA-N
HOP-62 NSCLC = test system: HOP-62 NSCLC
NCI-H522 lung = test system: NCI-H522 lung
HT29 colon = test system: HT29 colon
OVCAR-4 ovarian = test system: OVCAR-4 ovarian

SMILES	TGI (786-0 renal)	TGI (PC-3 prostate)	TGI (HS 578T breast)	TGI (U251 CNS)	TGI (CAKI-1 renal)	TGI (OVCAR-3 ovarian)	TGI (HCC-2998 colon)	TGI (MDA-N)	TGI (HOP-62 NSCLC)	TGI (NCI-H522 lung)	TGI (HT29 colon)	TGI (OVCAR-4 ovarian)
COC(=O)CCNC(=O)OCc1ccccc1	> 100 µM	> 100 µM	> 100 µM	> 100 µM	> 100 µM	> 100 µM	> 100 µM	> 100 µM	> 100 µM	> 100 µM	> 100 µM	–
Cc1cc2nc3ccccc3n2c2nc(N)ccc12	> 100 µM	> 100 µM	> 100 µM	–	> 100 µM	> 100 µM	> 100 µM	> 100 µM	> 100 µM	> 100 µM	> 100 µM	> 100 µM
CC(=O)NCC1OC2COC(c3ccccc3)OC2C(NC(=O)c2ccccc2)C1OC(=O)c1ccccc1 (configuration not stated)	> 100 µM	> 100 µM	> 100 µM	> 100 µM	> 100 µM	> 100 µM	> 100 µM	> 100 µM	> 100 µM	–	> 100 µM	> 100 µM
C=CC1CN(C(=O)OCC)N(C(=O)OCC)C1CCc1ccccc1 (configuration not stated)	> 100 µM	> 100 µM	> 100 µM	> 100 µM	> 100 µM	–	> 100 µM	> 100 µM	> 100 µM	> 100 µM	> 100 µM	> 100 µM
CC(=O)O[C@H]1C(=O)[C@@]2(C)[C@H]([C@H](OC(=O)c3ccccc3)[C@]3(O)C[C@H](OC(=O)[C@H](O)[C@@H](NC(=O)c4ccco4)c4ccccc4)C(C)=C1C3(C)C)[C@]1(OC(C)=O)CO[C@@H]1C[C@@H]2O	> 12.5 µM	> 12.5 µM	0.00279 µM	> 12.5 µM	> 12.5 µM	0.00548 µM	–	–	> 12.5 µM	> 12.5 µM	> 12.5 µM	> 12.5 µM
CSc1ccc(Nc2cc(=O)[nH]c(=O)[nH]2)cc1	> 100 µM	> 100 µM	> 100 µM	> 100 µM	> 100 µM	> 100 µM	> 100 µM	> 100 µM	–	> 100 µM	> 100 µM	> 100 µM
CCN(CC)CCN(C)c1ccc(CO)c2c1C(=O)c1ccccc1S2=O (configuration not stated)	3.22 µM	46 µM	28.5 µM	3.27 µM	26.2 µM	4.11 µM	2.99 µM	–	8.71 µM	4.23 µM	2.95 µM	11.7 µM
COC(=O)/C=C1/OC(c2ccccc2)=C(C)C1=O	22.3 µM	–	83.9 µM	27.1 µM	14.8 µM	41.9 µM	30.2 µM	5.71 µM	31.4 µM	57.5 µM	4.79 µM	–
C=C(C(=O)OC)[C@@H]1C[C@@H](OC(C)=O)C2=C[C@H](C[C@@]3(C)O[C@@H]3C3=CC(C)=C(O3)[C@H]1OC(C)=O)OC2=O	49.1 µM	> 100 µM	–	71.1 µM	21.2 µM	–	43 µM	50.8 µM	67.2 µM	5.83 µM	76.9 µM	> 100 µM
CCCCCc1c(CCCC)c(=O)[nH]c2nc(NC(=O)CCCC)ccc12	> 100 µM	> 100 µM	–	> 100 µM	> 100 µM	> 100 µM	> 100 µM	> 100 µM	> 100 µM	> 100 µM	–	> 100 µM
N[C@@H]1CCN(c2c(F)cc3c(=O)c(C(=O)O)cn4c3c2Oc2cc3c(ccc5ccccc53)cc2-4)C1	> 100 µM	> 28.2 µM	> 100 µM	5.04 µM	> 77.5 µM	34.5 µM	–	> 100 µM	> 100 µM	31.6 µM	> 100 µM	> 100 µM
CCOC(=O)c1c(NC(=S)Nc2ccc(Cl)cc2)sc2c1CCN(C)C2	> 100 µM	> 100 µM	> 100 µM	–	> 100 µM	> 100 µM	–	> 100 µM	> 100 µM	–	> 100 µM	–
COc1cccc(/C=C2\S/C(=N/Nc3nc(C)c(C)s3)NC2=O)c1O	> 100 µM	–	–	> 100 µM	> 100 µM	> 100 µM	> 100 µM	> 100 µM	> 100 µM	–	> 100 µM	> 100 µM
CC1=CC[C@@]2(C)CC[C@](O)(C(C)C)C2C(OC(=O)c2ccccc2)C1 (some centres not stated)	33.4 µM	45.6 µM	47.9 µM	60 µM	44.9 µM	31.8 µM	25 µM	–	33.7 µM	33.2 µM	32.7 µM	62.2 µM
C=C1C(=O)O[C@H]2C1C[C@@H](OC(C)=O)/C(C)=C/CC[C@@]1(C)O[C@H]21 (some centres not stated)	23.9 µM	31.3 µM	86 µM	> 100 µM	22.1 µM	–	27.9 µM	18.7 µM	34.5 µM	10.2 µM	41.5 µM	28.9 µM
O=[S@]1c2ccc3ccccc3c2N[C@@H]2[C@H]1[C@H]1C=C[C@@H]2C1	> 100 µM	> 100 µM	> 100 µM	> 100 µM	> 100 µM	37.6 µM	–	60.8 µM	> 100 µM	55.4 µM	> 100 µM	> 100 µM
Cc1ccc2c(=O)cc(-c3ccc(C)s3)[nH]c2n1	> 100 µM	> 44.9 µM	–	> 55.2 µM	> 100 µM	> 46.8 µM	9.82 µM	–	> 100 µM	–	–	> 100 µM
Cc1ccc(C)n2c1nc1ccccc12	> 100 µM	> 100 µM	> 100 µM	> 100 µM	–	> 100 µM	> 100 µM	> 100 µM	> 100 µM	–	> 100 µM	–
CCOC(=O)c1nc2cc(C(F)(F)F)ccc2nc1Nc1ccc(C(=O)OC)s1	84.8 µM	> 100 µM	> 100 µM	> 100 µM	> 100 µM	48.7 µM	> 100 µM	–	> 100 µM	90.3 µM	> 100 µM	> 100 µM
Fc1ccc2c3c([nH]c2c1)CCN(Cc1ccccc1)C3	30 µM	–	30.8 µM	37.1 µM	–	–	26 µM	–	28.5 µM	–	47.9 µM	56.1 µM
